molecular target: T1, ARNT (Homo sapiens, UniProt P27540); assay: ARNT degradation in a HiBiT system (HEK293 ARNT-HiBiT Knock-In cell line); format: cell-based; conditions: half-maximal degradation concentration; HEK293 ARNT-HiBiT KI cells, 4h of treatment, luminescence
T1 construct: an sgRNA targeting the C-terminus of the ARNT gene near the stop codon; endogenous in cells; host or cells: HEK293 ARNT-HiBiT knock-in, homozygous clone
Procedure: Compounds of Formula (I) were tested for ARNT degradation in a HiBiT system. A HEK293 ARNT-HiBiT Knock-In cell line was generated using CRISPR/Cas9 technology. Briefly, HEK293 cells were electroporated with the Neon system with an sgRNA targeting the C-terminus of the ARNT gene near the stop codon ([…] (SEQ ID NO: 1); chr 1: 150,812,014-150,812,034) and the HiBiT donor DNA template (80 nucleotides homology arms upstream and downstream of the insert site, with a GSGS (SEQ ID NO: 2) linker). A homozygous clone was selected after Sanger sequencing, and genetic edition was further validated using Nano-Glo HiBiT blotting system. HEK293 ARNT-HiBiT KI cells were cultured in DMEM+10% FBS at 37° C. and 5% CO2. For the assay, cells were seeded at 10,000 cells/well in white 384 plates (Corning #3570) in 22.5 μl of culture medium without phenol red. Test compounds were spotted in 384-well plates by an acoustic dispenser (10 concentrations, semi-log dilution, in 100% DMSO). Before treatment, compounds were diluted 1:100 or 1:1,000 in culture medium without phenol red, and cells were treated with 2.5 μl of diluted compounds 18h after seeding (final top concentration: 3 or 0.3 μM). After 4h of treatment, plates were equilibrated at room temperature for 30 min, and 25 μl of NANO-GLO® HiBiT Lytic reagent were added per well. Luminescence was measured on a plate reader 15 min after incubation with the detection reagent. Data were analyzed using the Genedata Screener Software version 19, and normalization was performed using the DMSO treated wells as Neutral Control and medium only (without cells) wells as Scale Reference. For curve fitting, the smart fit condensing method with a 4-parameters Hill model was used and the half-maximal degradation concentration (DC50) was calculated.

T1 sequence (P27540 whole entry): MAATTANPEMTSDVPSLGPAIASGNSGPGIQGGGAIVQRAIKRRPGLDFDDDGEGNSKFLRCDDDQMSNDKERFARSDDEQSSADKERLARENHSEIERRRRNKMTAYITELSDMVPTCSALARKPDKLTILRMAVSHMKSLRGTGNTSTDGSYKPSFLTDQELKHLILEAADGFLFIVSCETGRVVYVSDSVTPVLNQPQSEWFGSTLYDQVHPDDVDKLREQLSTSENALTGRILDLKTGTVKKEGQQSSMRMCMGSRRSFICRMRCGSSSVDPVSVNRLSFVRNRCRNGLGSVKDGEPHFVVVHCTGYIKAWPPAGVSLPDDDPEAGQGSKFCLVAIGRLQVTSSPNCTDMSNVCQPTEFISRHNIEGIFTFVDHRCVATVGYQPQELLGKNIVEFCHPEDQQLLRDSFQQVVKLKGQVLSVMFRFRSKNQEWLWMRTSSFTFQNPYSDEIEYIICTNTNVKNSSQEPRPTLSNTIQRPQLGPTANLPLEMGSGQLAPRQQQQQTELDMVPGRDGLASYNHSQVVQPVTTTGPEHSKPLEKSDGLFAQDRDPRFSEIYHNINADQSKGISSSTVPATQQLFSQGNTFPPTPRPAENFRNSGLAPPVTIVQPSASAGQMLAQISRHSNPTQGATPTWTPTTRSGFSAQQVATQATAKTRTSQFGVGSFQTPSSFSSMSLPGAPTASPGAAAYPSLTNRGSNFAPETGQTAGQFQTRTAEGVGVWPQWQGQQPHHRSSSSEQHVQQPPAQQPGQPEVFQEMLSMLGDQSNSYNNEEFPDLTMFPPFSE

SMILES | DC50
C[C@@H]1c2cc(C(=O)N3Cc4ccccc4[C@@H]3CN(C)C)ccc2C(=O)N1[C@H]1CCC(=O)NC1=O [Compound 1, (S)-3-((R)-5-((R)-1-((dimethylamino)methyl)isoin-doline-2-carbonyl)-3-methyl-1-oxoisoindolin-2-yl)piperidine-2,6-dione] | 0.29 nM
C[C@@H]1c2cc(C(=O)N3Cc4c(ccc(Cl)c4F)[C@@H]3CN3CC(F)(F)C3)ccc2C(=O)N1[C@H]1CCC(=O)NC1=O [Compound 15, (S)-3-((R)-5-((R)-5-chloro-1-((3,3-difluoroazetidin-1-yl)methyl)-4-fluoroisoindoline-2-carbonyl)-3-methyl-1-oxoisoindolin-2-yl)piperidine-2,6-dione] | 1 nM
CCOc1ccc2c(c1C)CN(C(=O)c1ccc3c(c1)[C@@H](C)N([C@H]1CCC(=O)NC1=O)C3=O)[C@H]2C [Compound 23, (S)-3-((R)-5-((S)-5-ethoxy-1,4-dimethylisoindoline-2-carbonyl)-3-methyl-1-oxoisoindolin-2-yl)piperidine-2,6-dione] | 1.3 nM
COc1c(Br)ccc2c1CN(C(=O)c1ccc3c(c1)[C@@H](C)N([C@H]1CCC(=O)NC1=O)C3=O)[C@H]2C [Compound 22, (S)-3-((R)-5-((S)-5-bromo-4-methoxy-1-methylisoindoline-2-carbonyl)-3-methyl-1-oxoisoindolin-2-yl)piperidine-2,6-dione] | 1.3 nM
C[C@@H]1c2cc(C(=O)N3Cc4c(ccc(Cl)c4F)[C@@H]3CN3CC4CCC3C4)ccc2C(=O)N1[C@H]1CCC(=O)NC1=O (stereo partly drawn) [Compound 10, (3S)-3-((3R)-5-((1R)-1-((2-azabicyclo[2.2.1]heptan-2-yl)methyl)-5-chloro-4-fluoroisoindoline-2-carbonyl)-3-methyl-1-oxoisoindolin-2-yl)piperidine-2,6-dione] | 0.71 nM
C[C@@H]1c2cc(C(=O)N3Cc4c(ccc(Cl)c4F)[C@@H]3CN(C)C)ccc2C(=O)N1[C@H]1CCC(=O)NC1=O [Compound 2, (S)-3-((R)-5-((R)-5-chloro-1-((dimethylamino)methyl)-4-fluoroisoindoline-2-carbonyl)-3-methyl-1-oxoisoindolin-2-yl)piperidine-2,6-dione] | 0.33 nM
C[C@@H]1c2cc(C(=O)N3Cc4cc(F)c(F)cc4[C@@H]3C)ccc2C(=O)N1[C@H]1CCC(=O)NC1=O [Compound 21, (S)-3-((R)-5-((S)-5,6-difluoro-1-methylisoindoline-2-carbonyl)-3-methyl-1-oxoisoindolin-2-yl)piperidine-2,6-dione] | 1.3 nM
C[C@@H]1c2cc(C(=O)N3Cc4cc(C(F)(F)F)ccc4[C@@H]3CN(C)C)ccc2C(=O)N1[C@H]1CCC(=O)NC1=O [Compound 8, (S)-3-((R)-5-((R)-1-((dimethylamino)methyl)-5-(trifluoromethyl)isoindoline-2-carbonyl)-3-methyl-1-oxoisoindolin-2-yl)piperidine-2,6-dione] | 0.61 nM
C[C@H]1c2ccc(C(F)(F)F)cc2CN1C(=O)c1ccc2c3c(cccc13)N(C1CCC(=O)NC1=O)C2=O (stereo partly drawn) [Compound 16, 3-(5-((S)-1-methyl-5-(trifluoromethyl)isoindoline-2-carbonyl)-2-oxobenzo[cd]indol-1(2H)-yl)piperidine-2,6-dione] | 1 nM
Cc1c(C2CC2)ccc2c1CN(C(=O)c1ccc3c(c1)[C@@H](C)N([C@H]1CCC(=O)NC1=O)C3=O)[C@H]2C [Compound 18, (S)-3-((R)-5-((S)-5-cyclopropyl-1,4-dimethylisoindoline-2-carbonyl)-3-methyl-1-oxoisoindolin-2-yl)piperidine-2,6-dione] | 1.2 nM
C[C@@H]1c2cc(C(=O)N3Cc4c(Br)cccc4[C@@H]3CN(C)C)ccc2C(=O)N1[C@H]1CCC(=O)NC1=O [Compound 3, (S)-3-((R)-5-((R)-4-bromo-1-((dimethylamino)methyl)isoin-doline-2-carbonyl)-3-methyl-1-oxoisoindolin-2-yl)piperidine-2,6-dione] | 0.39 nM
COc1ccc2c(c1Br)CN(C(=O)c1ccc3c(c1)[C@@H](C)N([C@H]1CCC(=O)NC1=O)C3=O)[C@H]2CN(C)C [Compound 14, (S)-3-((R)-5-((R)-4-bromo-1-((dimethylamino)methyl)-5-methoxyisoindoline-2-carbonyl)-3-methyl-1-oxoisoindolin-2-yl)piperidine-2,6-dione] | 0.95 nM
C[C@@H]1c2cc(C(=O)N3Cc4c(ccc(Br)c4F)[C@@H]3C)ccc2C(=O)N1[C@H]1CCC(=O)NC1=O [Compound 19, (S)-3-((R)-5-((S)-5-bromo-4-fluoro-1-methylisoindoline-2-carbonyl)-3-methyl-1-oxoisoindolin-2-yl)piperidine-2,6-dione] | 1.2 nM
C[C@H]1c2ccc(Cl)c(F)c2CN1C(=O)c1ccc2c3c(cccc13)N(C1CCC(=O)NC1=O)C2=O (stereo partly drawn) [Compound 5, 3-(5-((S)-5-chloro-4-fluoro-1-methylisoindoline-2-carbonyl)-2-oxobenzo[cd]indol-1(2H)-yl)piperidine-2,6-dione] | 0.42 nM
C[C@@H]1c2cc(C(=O)N3Cc4c(ccc(Cl)c4F)[C@@H]3CN3CC4CC3C4)ccc2C(=O)N1[C@H]1CCC(=O)NC1=O [Compound 7, (S)-3-((R)-5-((R)-1-((2-azabicyclo[2.1.1]hexan-2-yl)methyl)-5-chloro-4-fluoroisoindoline-2-carbonyl)-3-methyl-1-oxoisoindolin-2-yl)piperidine-2,6-dione] | 0.48 nM
C[C@@H]1c2cc(C(=O)N3Cc4cc(C(F)(F)F)ccc4[C@@H]3C)c(F)cc2C(=O)N1[C@H]1CCC(=O)NC1=O [Compound 20, (S)-3-((R)-5-fluoro-1-methyl-6-((S)-1-methyl-5-(trifluoromethyl)isoindoline-2-carbonyl)-3-oxoisoindolin-2-yl)piperidine-2,6-dione] | 1.3 nM
C[C@@H]1c2cc(C(=O)N3Cc4c(ccc(Cl)c4F)[C@@H]3CN3CCCCC3)ccc2C(=O)N1[C@H]1CCC(=O)NC1=O [Compound 6, (S)-3-((R)-5-((R)-5-chloro-4-fluoro-1-(piperidin-1-ylmethyl)isoindoline-2-carbonyl)-3-methyl-1-oxoisoindolin-2-yl)piperidine-2,6-dione] | 0.46 nM

Further lines, results first:

DC50 | SMILES
3.4 nM | C[C@H]1c2ccc(Br)c(F)c2CN1C(=O)c1ccc2c(c1)CN(C1CCC(=O)NC1=O)C2=O (stereo partly drawn) [Compound 36, 3-(5-((S)-5-bromo-4-fluoro-1-methylisoindoline-2-carbonyl)-1-oxoisoindolin-2-yl)piperidine-2,6-dione]
1.9 nM | C[C@@H]1c2cc(C(=O)N3Cc4c(ccc(Cl)c4F)[C@@H]3C)ccc2C(=O)N1[C@H]1CCC(=O)NC1=O [Compound 30, (S)-3-((R)-5-((S)-5-chloro-4-fluoro-1-methylisoindoline-2-carbonyl)-3-methyl-1-oxoisoindolin-2-yl)piperidine-2,6-dione]
1.7 nM | Cc1ccc2c(c1F)CN(C(=O)c1ccc3c(c1)[C@@H](C)N([C@H]1CCC(=O)NC1=O)C3=O)[C@H]2C [Compound 26, (S)-3-((R)-5-((S)-4-fluoro-1,5-dimethylisoindoline-2-carbonyl)-3-methyl-1-oxoisoindolin-2-yl)piperidine-2,6-dione]
2.2 nM | C[C@@H]1c2cc(C(=O)N3Cc4cc(C(F)(F)F)ccc4[C@@H]3C)ccc2C(=O)N1[C@H]1CCC(=O)NC1=O [Compound 31, (S)-3-((R)-3-methyl-5-((S)-1-methyl-5-(trifluoromethyl)isoindoline-2-carbonyl)-1-oxoisoindolin-2-yl)piperidine-2,6-dione]
2.3 nM | C[C@@H]1c2cc(C(=O)N3Cc4c(ccc(C(F)(F)F)c4F)[C@@H]3C)ccc2C(=O)N1[C@H]1CCC(=O)NC1=O [Compound 32, (S)-3-((R)-5-((S)-4-fluoro-1-methyl-5-(trifluoromethyl)isoindoline-2-carbonyl)-3-methyl-1-oxoisoindolin-2-yl)piperidine-2,6-dione]
1.8 nM | C[C@@H]1c2c(ccc(C(=O)N3Cc4ccccc4[C@@H]3CN(C)C)c2F)C(=O)N1[C@H]1CCC(=O)NC1=O [Compound 29, (S)-3-((R)-5-((R)-1-((dimethylamino)methyl)isoin-doline-2-carbonyl)-4-fluoro-3-methyl-1-oxoisoindolin-2-yl)piperidine-2,6-dione]
1.7 nM | C[C@@H]1c2cc(C(=O)N3Cc4ccc(F)cc4[C@@H]3C)ccc2C(=O)N1[C@H]1CCC(=O)NC1=O [Compound 27, (S)-3-((R)-5-((S)-6-fluoro-1-methylisoindoline-2-carbonyl)-3-methyl-1-oxoisoindolin-2-yl)piperidine-2,6-dione]
3 nM | COc1c(C(=O)N2Cc3c(ccc(Cl)c3F)[C@@H]2C)ccc2c1[C@@H](C)N([C@H]1CCC(=O)NC1=O)C2=O [Compound 33, (S)-3-((R)-5-((S)-5-chloro-4-fluoro-1-methylisoindoline-2-carbonyl)-4-methoxy-3-methyl-1-oxoisoindolin-2-yl)piperidine-2,6-dione]

Source: US20250368620A1, “ARNT Degrading Compounds and Uses Thereof” (Celgene Corporation, priority 2024, published 2025)
